ChEMBL document CHEMBL1201862, “PubChem BioAssay data set” (2004)
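1) Cells in 96-well plates. 2) Compound, 48 h, 5 concentrations. 3) Linear interpolation between surrounding doses. 4) Unreached endpoint = highest concentration. Abbreviation: GI50, concentration required for 50% inhibition of growth.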 The source made the active and inactive calls. Rule as the data show it: active = GI50 up to about 1.1 µM and inactive = higher.

Key:
Assay in all cases: inhibition of tumour cell growth, NCI panel, 48 h
BT-549 = test system: BT-549
DLD-1 = test system: DLD-1
DMS-273 = test system: DMS-273
HOP-18 = test system: HOP-18
KM-20L2 = test system: KM-20L2
LXFL 529 = test system: LXFL 529
M19-MEL = test system: M19-MEL
RXF 631 = test system: RXF 631
XF498 = test system: XF498

Measured: GI50

Cc1cc(=O)oc2c(C3=NN(C=O)C(c4ccccc4)C3)c(O)ccc12 (stereo not given)
inactive: BT-549 65.6 µM | DLD-1 > 100 µM | DMS-273 > 100 µM | HOP-18 > 100 µM | KM-20L2 > 100 µM | LXFL 529 > 100 µM | M19-MEL > 100 µM | RXF 631 25.2 µM | XF498 18.7 µM

O=C1OC(CC(=O)c2ccc(Cl)c(Cl)c2)C(Cl)=C1Cl (stereo not given)
inactive: DLD-1 > 100 µM | DMS-273 > 100 µM | HOP-18 > 100 µM | KM-20L2 > 100 µM | LXFL 529 58.6 µM | M19-MEL > 100 µM | RXF 631 > 100 µM | XF498 64 µM

Nn1c(-c2ccccc2Cl)nc2ccccc2c1=O
inactive: DLD-1 > 100 µM | DMS-273 > 100 µM | HOP-18 44.8 µM | KM-20L2 > 100 µM | LXFL 529 > 100 µM | M19-MEL > 100 µM | RXF 631 > 100 µM | XF498 > 100 µM
